Consider 26 molecules from patent publication US20020183384A1, “Methods of treating nuclear factor-kappa B mediated diseases and disorders” (priority 2001, published 2002).

A value given as a limit tells only on which side of the number the result lay.

For one assay, the system named is NF-κB mediated transcription. As to the kind of experiment: NF-κB driven β-lactamase reporter assay in ECV-304 NF-κB.βlaZ cells (AURORA CCF2 fluorescence). Type of assay: cell-based, human. The settings on record: Homo sapiens, ECV-304, 6 h, 10 μM compound; ECV-304 NF-κB.βlaZ cells stimulated with 10 ng/mL TNF-α or 100 pg/mL IL-1β, 6 hours at 37° C.; inhibition of maximum blue/green ratio; read-out: Percent Inhibition at 10 μM. In a few lines:
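Blue/green (460/530 nm, excitation 395 nm) CCF2 emission ratio quantified NF-κB-driven β-lactamase expression in the stably transfected endothelial-like ECV-304 clone 1E8.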
For `CC(C)c1cccc(C(C)C)c1OS(=O)(=O)NC(=O)C(c1ccccc1)C1CCCC1` (centres unmarked) [Example 161, (Cyclopentyl-phenyl-acetyl)-sulfamic acid 2,6-diisopropyl-phenyl ester], the inhibition at 10 µM is 51.5%.
On the same count and under the same terms, under `CC(C)c1cc(C(C)C)c(C(O)C(=O)NS(=O)(=O)Oc2c(C(C)C)cccc2C(C)C)c(C(C)C)c1` (centres unmarked) [Example 162, [Hydroxy-(2,4,6-triisopropyl-phenyl)-acetyl]-sulfamic acid 2,6-diisopropyl-phenyl ester] stands 75.3%.
Same read-out and setting: the value for `CC(C)c1cccc(C(C)C)c1OS(=O)(=O)NC(=O)C(c1ccccc1)(c1ccccc1)c1ccccc1` [Example 163, Triphenylacetyl-sulfamic acid 2,6-diisopropyl-phenyl ester] was 62.4%; that for `CC(C)c1cccc(C(C)C)c1OS(=O)(=O)NC(=O)OC1[C@@H](C(C)C)CCC[C@H]1C(C)C` (stereo partly drawn) [Example 164, Carbamic acid, [[2,6-bis(1-methylethyl)phenoxy]sulfonyl]-, (2R,6S)-2,6-bis(1-methylethyl)cyclohexyl ester] was 55.2%.
The same measure, in the same setting: under `CC(C)c1cccc(C(C)C)c1OS(=O)(=O)NC(=O)C1CCc2ccccc2C1` (centres unmarked) [Example 165, (1,2,3,4-Tetrahydro-naphthalene-2-carbonyl)-sulfamic acid 2,6-diisopropyl-phenyl ester] stands 28.7%.
As to `CCC(C)C(C(=O)NS(=O)(=O)Oc1c(C(C)C)cccc1C(C)C)c1ccccc1` (centres unmarked) [Example 167, (3-Methyl-2-phenyl-pentanoyl)-sulfamic acid 2,6-diisopropyl-phenyl ester], the inhibition at 10 µM stood at 40%.
Still for that read-out and setting: under `CC(C)c1cccc(C(C)C)c1OS(=O)(=O)NC(=O)C1(c2ccccc2)CCCC1` [Example 168, (1-Phenyl-cyclopentanecarbonyl)-sulfamic acid 2,6-diisopropyl-phenyl ester] stands 39.1%; under `CCC(C(=O)NS(=O)(=O)Oc1c(C(C)C)cccc1C(C)C)c1ccccc1` (centres unmarked) [Example 169, (2-Phenyl-butyryl)-sulfamic acid 2,6-diisopropyl-phenyl ester], 21.3%; under `CC(C)c1cccc(C(C)C)c1OS(=O)(=O)NC(=O)C(c1ccccc1)C1CCCCC1` (centres unmarked) [Example 170, (Cyclohexyl-phenyl-acetyl)-sulfamic acid 2,6-diisopropyl-phenyl ester], 78.6%.
On to `CC(C)c1cccc(C(C)C)c1OS(=O)(=O)NC(=O)C(C)(c1ccccc1)c1ccccc1` [Example 171, (2,2-Diphenyl-propionyl)-sulfamic acid 2,6-diisopropyl-phenyl ester], for which the inhibition at 10 µM amounted to 62.2%.
On to `CC(C)c1cccc(C(C)C)c1OS(=O)(=O)NC(=O)C(c1ccc(Cl)cc1)c1ccc(Cl)cc1` [Example 172, [Bis-(4-chloro-phenyl)-acetyl]-sulfamic acid 2,6-diisopropyl-phenyl ester], for which the inhibition at 10 µM came out at 86.9%.
As to `CC(C)c1cccc(C(C)C)c1OS(=O)(=O)NC(=O)C1c2ccccc2Oc2ccccc21` [Example 173, (9H-Xanthene-9-carbonyl)-sulfamic acid 2,6-diisopropyl-phenyl ester], the inhibition at 10 µM turned out to be 36.9%.
Consider `CC(C)c1cccc(C(C)C)c1OS(=O)(=O)NC(=O)C1c2ccccc2-c2ccccc21` [Example 174, (9H-Fluorene-9-carbonyl)-sulfamic acid 2,6-diisopropyl-phenyl ester], for which the inhibition at 10 µM is 32.2%.
The same measure, in the same setting: under `CC(C)c1cccc(C(C)C)c1OS(=O)(=O)NC(=O)C(Br)c1ccccc1` (centres unmarked) [Example 175, (Bromo-phenyl-acetyl)-sulfamic acid 2,6-diisopropyl-phenyl ester] stands less than 10%; under `CC(C)c1cccc(C(C)C)c1OS(=O)(=O)NC(=O)CCc1ccccc1` [Example 176, (3-Phenyl-propionyl)-sulfamic acid 2,6-diisopropyl-phenyl ester], less than 10%.
Same read-out and setting: the value for `CC(C)c1cc(C(C)C)c(NC(=O)NS(=O)(=O)Oc2c(C(C)C)cccc2C(C)C)c(C(C)C)c1` [Example 177, Sulfamic acid, [[[2,4,6-tris(1-methylethyl)phenyl]amino]carbonyl]-, 2,6-bis(1-methylethyl)phenyl ester] was 63.6%.
Consider `CC(C)c1cc(C(C)C)c(CC(=O)NS(=O)(=O)Oc2c(C(C)C)cc(O)cc2C(C)C)c(C(C)C)c1` [Example 180, [(2,4,6-Triisopropyl-phenyl)-acetyl]-sulfamic acid 4-hydroxy-2,6-diisopropyl-phenyl ester], for which the inhibition at 10 µM was 92%.
The same measure, in the same setting: the value for `CC(C)c1cc(C(C)C)c(CC(=O)N(C)S(=O)(=O)Oc2c(C(C)C)cccc2C(C)C)c(C(C)C)c1` [Example 181, Methyl-[(2,4,6-triisopropyl-phenyl)-acetyl]-sulfamic acid 2,6-diisopropyl-phenyl ester] was less than 10%; that for `CC(C)c1cc(C(C)C)c(CC(=O)NS(=O)(=O)Oc2c(C(C)C)cc([N+](=O)[O-])cc2C(C)C)c(C(C)C)c1` [Example 182, [(2,4,6-Triisopropyl-phenyl)-acetyl]-sulfamic acid 2,6-diisopropyl-4-nitro-phenyl ester] was 69.8%.
With `CC(C)c1cc(C(C)C)c(CC(=O)NS(=O)(=O)Oc2c(C(C)C)cc(F)cc2C(C)C)c(C(C)C)c1` [Example 185, [(2,4,6-Triisopropyl-phenyl)-acetyl]-sulfamic acid 4-fluoro-2,6-diisopropyl-phenyl ester], the inhibition at 10 µM is 73.9%.
On the same count and under the same terms, the value for `COc1cccc(OC)c1OS(=O)(=O)NC(=O)Cc1c(C(C)C)cc(C(C)C)cc1C(C)C` [Example 186, [(2,4,6-Triisopropyl-phenyl)-acetyl]-sulfamic acid 2,6-dimethoxy-phenyl ester] was 18.8%.

Still in this assay, the particulars now being: Homo sapiens; 10 μM compound; ECV-304 NF-κB.βlaZ cells stimulated with 10 ng/mL TNF-α or 100 pg/mL IL-1β, 6 hours at 37° C.; inhibition of maximum blue/green ratio; read-out: Percent Inhibition at 10 μM.
Regarding `Cc1cc(C)c(C)c(OC(=O)NS(=O)(=O)Oc2c(C(C)C)cccc2C(C)C)c1C` [Example 166, Carbamic acid, [[2,6-bis(1-methylethyl)phenoxy]sulfonyl]-, 2,3,5,6-tetramethylphenyl ester], the inhibition at 10 µM is less than 10%.
Still for that read-out and setting: the value for `CC(C)c1cccc(C(C)C)c1OS(=O)(=O)NC(=O)Oc1cccnc1` [Example 178, Carbamic acid, [[2,6-bis(1-methylethyl)phenoxy]sulfonyl]-, 3-pyridinyl ester] was less than 10%; that for `Cc1cccc(C)c1OC(=O)NS(=O)(=O)Oc1c(C(C)C)cccc1C(C)C` [Example 179, Carbamic acid, [[2,6-bis(1-methylethyl)phenoxy]sulfonyl]-, 2,6-dimethylphenyl ester] was less than 10%; that for `CC(=O)c1cc(C(C)C)c(OC(=O)NS(=O)(=O)Oc2c(C(C)C)cccc2C(C)C)c(C(C)C)c1` [Example 183, Carbamic acid, [[2,6-bis(1-methylethyl)phenoxy]sulfonyl]-, 4-acetyl-2,6-bis(1-methylethyl)phenyl ester] was less than 10%.
With `CC(C)c1cc(F)cc(C(C)C)c1OC(=O)NS(=O)(=O)Oc1c(C(C)C)cccc1C(C)C` [Example 184, Carbamic acid, [[2,6-bis(1-methylethyl)phenoxy]sulfonyl]-, 4-fluoro-2,6-bis(1-methylethyl)phenyl ester], the inhibition at 10 µM was 21.2%.
